Data set [1] concerns bean aphid (Aphis fabae Scop.). In words: Bean Aphid Foliage Spray Test. Type of data set: in vivo. Also on record: key: A: Excellent control; B: Partial control; C: No control. The settings on record: 500 parts per million; 24 hour holding period. As to the method:
(§1) The compound of EXAMPLE IV was evaluated to determine its pesticidal activity against mites and certain insects, including an aphid, a caterpillar, a beetle and a fly.
(§2) Suspensions of the test compound was prepared by dissolving one gram of compound in 50 milliliters of acetone in which had been dissolved 0.1 gram (10 percent of the weight of compound) of an alkylphenoxy polyethoxyethanol surfactant, as an emulsifying or dispersing agent. The resulting solution was mixed into 150 milliliters of water to give roughly 200 of milliliters of a suspension containing the compound in finely divided form. The thus-prepared stock suspension contained 0.5 percent by weight of test compound. The test concentrations in parts per million by weight employed in the tests described hereinbelow were obtained by appropriate dilutions of the stock suspension with water. The test procedures were as follows.
Adults and nymphal stages of the bean aphid (Aphis fabae Scop.) reared on potted dwarf nasturtium plants at 65°-70° F. and 50-70 percent relative humidity, constituted the test insects. […]
The potted plants (one pot per compound tested) infested with 100-150 aphids, were placed on a revolving turntable and sprayed with 100-110 milliliters of test compound formulation by use of a DeVilbiss spray gun set at 40 psig. air pressure. […] Percent mortality was recorded for various concentration levels. […]

Data set [2] concerns two-spotted mite (Tetranychus urticae Koch). The experiment in a line: Mite Foliage Spray Test. Type of data set: in vivo. Also on record: key: A: Excellent control; B: Partial control; C: No control. The settings on record: 500 parts per million; six days. As to the method: as §1, §2
Adults and nymphal stages of the two-spotted mite (Tetranychus urticae Koch), reared on Tendergreen bean plants at 80±5 percent relative humidity, were the test organisms. Infested leaves from a stock culture were placed on the primary leaves of two bean plants six to eight inches in height, growing in a two- and-a-half inch clay pot. 150-200 mites, a sufficient number for testing, transferred from the excised leaves to the fresh plants in a period of twenty-four hours. […]

The subject of data set [3] is southern armyworm (Prodenia Eridania, (Cram.)). In words: Southern Armyworm Leaf Spray Test. Also on record: key: A: Excellent control; B: Partial control; C: No control. Type of data set: in vivo. Conditions: 500 parts per million; three days. On the procedure:
as §1, §2
Larvae of the southern armyworm (Prodenia Eridania, (Cram.), reared on Tendergreen bean plants at a temperature of 80±5° F. and relative humidity of 50±5 percent, constituted the test insects. […]
This application which lasted 25 seconds was sufficient to wet plants to run-off. […] Percent mortality was recorded for various concentration levels. […]

Data set [4] relates to Mexican bean beetle (Epilachna varivestis, Muls.). In words: Mexican Bean Beetle Leaf Spray Test. Type of data set: in vivo. Also on record: key: A: Excellent control; B: Partial control; C: No control. Conditions: 500 parts per million; three days. On the procedure:
as §1, §2
Fourth instar larvae of the Mexican bean beetle (Epilachna varivestis, Muls.) reared on Tendergreen bean plants at a temperature of 80±5° and 50±5 percent relative humidity, were the test insects.
The test compound was formulated by diluting the stock suspension with water to give a suspension containing 500 parts of test compound per million parts of final formulation. […]

For data set [5], the system named is house flies (Musca domestica, L.). In words: Fly Bait Test. Type of data set: in vivo. Also on record: key: A: Excellent control; B: Partial control; C: No control. The settings on record: 500 parts per million in sugar solution bait; twenty four hours. As to the method: as §1, §2
Four to six day old adult house flies (Musca domestica, L.) reared according to the specifications of the Chemical Specialties Manufacturing Association (Blue Book, McNair-Dorland Co., N.Y., 1954; pages 243-244, 261) under controlled conditions of 80±° F. and 50±5 percent relative humidity, were the test insects. […]

The subject of another data set is Bean. The experiment in a line: Phytotoxicity test, Bean. The class given is in vivo. Conditions: 2500 parts per million; ten days. On the set-up: key: 1: no perceptible injury; 2: intermediate degrees of injury based upon the number and extent to which leaves were injured; 3: intermediate degrees of injury based upon the number and extent to which leaves were injured; 4: intermediate degrees of injury based upon the number and extent to which leaves were injured; 5: the plant was dead. As to the method:
(§3) Experiments were also conducted to determine the phytotoxicity of a representative composition with respect to healthy fresh plants. A solution of the compound prepared as described above to provide a concentration of 2500 parts per million of the test compound. The test plants were sprayed in accordance with the procedure described above for the Mite Foliage Spray Test so as to deliver approximately 100 milliliters of test solution to the leaves of each plant tested. The sprayed plants and controls were set aside for approximately one hour to allow the solutions to dry and were then placed in the greenhouse. After ten days the plants were visually inspected to determine the extent of foliage injury. A rating of 1 indicates no perceptible injury; 5 indicates the plant was dead and ratings of 2, 3 and 4 indicate intermediate degrees of injury based upon the number and extent to which leaves were injured.

In data set [6] the test system is Cot. In words: Phytotoxicity test, Cot. (second column). Type of data set: in vivo. On the set-up: key: 1: no perceptible injury; 2: intermediate degrees of injury based upon the number and extent to which leaves were injured; 3: intermediate degrees of injury based upon the number and extent to which leaves were injured; 4: intermediate degrees of injury based upon the number and extent to which leaves were injured; 5: the plant was dead. The settings on record: 2500 parts per million; ten days. On the procedure:
as §3

For a further data set, the system named is Tom. In words: Phytotoxicity test, Tom. Type of data set: in vivo. Also on record: key: 1: no perceptible injury; 2: intermediate degrees of injury based upon the number and extent to which leaves were injured; 3: intermediate degrees of injury based upon the number and extent to which leaves were injured; 4: intermediate degrees of injury based upon the number and extent to which leaves were injured; 5: the plant was dead. Conditions: 2500 parts per million; ten days. On the procedure: as §3

Data set [7] deals with Cot. The experiment in a line: Phytotoxicity test, Cot. (fourth column). Type of data set: in vivo. On the set-up: key: 1: no perceptible injury; 2: intermediate degrees of injury based upon the number and extent to which leaves were injured; 3: intermediate degrees of injury based upon the number and extent to which leaves were injured; 4: intermediate degrees of injury based upon the number and extent to which leaves were injured; 5: the plant was dead. Conditions: 2500 parts per million; ten days. As to the method: as §3

Another data set relates to Soybean. The experiment in a line: Phytotoxicity test, Soybean. Type of data set: in vivo. Also on record: key: 1: no perceptible injury; 2: intermediate degrees of injury based upon the number and extent to which leaves were injured; 3: intermediate degrees of injury based upon the number and extent to which leaves were injured; 4: intermediate degrees of injury based upon the number and extent to which leaves were injured; 5: the plant was dead. Conditions: 2500 parts per million; ten days. As to the method: as §3

A further data set can be described thus: Water solubility. The settings on record: 25° C. Type of data set: physicochemical.

We go through one compound from patent publication US4430341A, “Water soluble pesticidal quaternary ammonium salt compounds” (Union Carbide Corporation, priority 1977, dated 1984).

Broadly, the solubility is how much of the substance goes into solution per volume.

Turning to `CN(C(=O)C[N+](C)(C)CCOCC[N+](C)(C)CC(=O)N(C)C(=O)Oc1cccc2ccccc12)C(=O)Oc1cccc2ccccc12` [EXAMPLE IV], in data set [1], the “Insecticidal and Miticidal: Aphid” value is on record as “B”. In addition, the “Insecticidal and Miticidal: Mite” value in data set [2] was “C”. In addition, in [3], the “Insecticidal and Miticidal: So. Army Worm” value was “A”. For the same compound, the “Insecticidal and Miticidal: Mexican Bean Beetle” value in [4] was “A”. For the same compound, in [5], the “Insecticidal and Miticidal: House Fly” value is “A”. Moreover, the “Herbicidal: Bean” value in the data set with Bean turned out to be 2. In addition, the entries for the “Herbicidal: Cot.” value in the data set on Cot. [6] and in the data set with Cot. [7] were 1 and 2, respectively. Further, the “Herbicidal: Tom.” value in the data set with Tom. is reported as 1. Also, the “Herbicidal: Soybean” value in the data set with Soybean stood at 2. Further, in “Water solubility”, the “% Water Solubility” value is listed as 20%. In the data set “Water solubility” (water), this compound displayed a solubility of 200 mg/mL.
